Experimental data reported in patent US20060034780A1, “Dental compositions and methods” (The Boots Company, priority 2002, published 2006).

Experiment: Whitening of extracted teeth, CIE whiteness index by image analysis
Protocol: Extracted caries-free teeth collected from dental hospitals were briefly brushed to remove any skin tissue attached. The teeth were then sterilized by autoclaving at 121° C. for 25 mins. All teeth were stored in an airtight plastic container containing a solution of Phosphate Buffered Saline (PBS) with a few crystals of thymol as an antibacterial agent until required for use. Twenty four hours before the study, each tooth was glued onto a numbered glass microscope slide. A pellicle was formed on the teeth by soaking in sterilised artificial saliva with the composition set out in Table 1.
After the 24 hr period of pellicle formation, the teeth were then brushed with an Oral B Plaque remover electric toothbrush for 2 mins, with a standard fluoride toothpaste, the composition of which is set out in Table 2:
Excess toothpaste was removed by briefly rinsing each tooth with deionised water. The teeth were returned to a fresh aliquot of artificial saliva and then measured. The measured whiteness index (determined by image analysis as described below) was taken as the baseline against which subsequent measurements were compared.
[…] Teeth were returned to a fresh aliquot of artificial saliva and a Post-Bleach measurement taken.
FWA was applied to the teeth by immersion in a 500 ppm FWA solution (50 mg FWA in 100 ml deionised water stirred for 30 minutes) for 1 hr. The teeth were returned to a fresh aliquot of artificial saliva and a post-FWA measurement taken.
Each tooth was imaged using a Kodak DCS 410 camera, which was mounted 10 cm above and perpendicular to the specimen, using aperture F11 and a shutter speed of 1/10 second. The standardised lighting source comprised two UV tubes and two 6500K ‘daylight’ tubes. Each image was transferred to Adobe PhotoShop software. For each image, an 8 mm^2 area was analysed and an average Adobe L,a,b reading obtained using the software. All L,a,b values were converted to CIE L*,a*,b* and then to the CIE whiteness index W, using the equation: W=Y+800(xn−x)+1700(yn−y) where Y is the Y-tristimulus value of the specimen, x and y, and xn and yn are the chromaticity coordinates for the specimen and for the perfect diffuser for the CIE 1931 2° Standard Observer, respectively. Results

## OO [Example H2O2, hydrogen peroxide]
H2O2 alone: immersion in 15% hydrogen peroxide solution for 1 hr, vs baseline, six groups of three teeth
  average percentage increase in whiteness index: 17%
Treatment with 15% H2O2, each group of teeth, vs baseline
  change in whiteness index (in words): increase in whiteness index

## O=S(=O)(O)c1ccccc1C=Cc1ccc(-c2ccc(C=Cc3ccccc3S(=O)(=O)O)cc2)cc1 [FWA, 4,4′-bis(2-sulfostyryl)biphenyl]
FWA treatment after 15% H2O2 bleaching
  change in whiteness index (in words) compared with treatment with H2O2 alone: further increase in whiteness
Combined treatment using chlorine dioxide (sodium chlorite bleach) and FWA (Tinopal CBS-X), vs baseline
  average percentage increase in whiteness index: 41%
Combined treatment: 15% H2O2 1 hr, then 500 ppm FWA solution 1 hr, vs baseline, six groups of three teeth
  average percentage increase in whiteness index: 24%

## sodium chlorite
Bleach alone: sodium chlorite (generating chlorine dioxide in use) in place of H2O2, vs baseline
  average percentage increase in whiteness index: 8%
